From patent US10155001B2, “RAC1 inhibitors for inducing bronchodilation” (INSERM (Institut National de la Sante et de la Recherche …, priority 2013, dated 2018) come the findings set out here.

The structures appear in SMILES notation. Entries after “also recorded” stand apart in the source; their conditions may differ.

Experiment [1] has as its system AHR to methacholine in OVA-sensitized mice. The experiment in a line: Airway hyper-responsiveness to methacholine in OVA model of allergic asthma, plethysmography. The following applies: for metacholine-induced airway response: summary statement: compared with SM-Rac1-KO mice in the OVA-sensitized model of allergic asthma; for AHR to methacholine: OVA-sensitized mice, nebulized before methacholine challenge, FIG. 6, E (o/o).
Protocol: Analysis of airways responsiveness in vivo: Airway responsiveness was assessed in conscious, unrestrained mice using a barometric, whole-body plethysmography (EMKA Technologies) by recording respiratory pressure curves in response to inhaled methacholine (Sigma) at concentrations of 0-40 mg/ml for 1 min. Airway responsiveness was expressed in enhanced pause (Penh) units. The Penh values measured after stimulation were averaged and expressed as the fold-increase over baseline values. Alternatively, dynamic airway resistance was measured using a Flexivent® apparatus (SCIREQ). In this case, mice were anesthetized by a ketamine/xylazine solution, tracheotomized, paralyzed and immediately intubated, followed by mechanical ventilation. Respiratory frequency was set at 150 breaths/min. Increasing concentrations of methacholine (0-15 mg/mL) were administered via a nebulizer aerosol system (Aeroneb, Aerogen).
Allergic asthma induction: When indicated, asthma was induced in mice by intraperitoneal injections with ovalbumin (OVA) in alum (Sigma) at D0, D14 and D21. Mice were challenged at D27, D28 and D29 through intranasal route with aerosolized OVA (50 μg in phosphate-buffered saline). These OVA-sensitized mice were used as a model of in vivo chronic asthma. Control mice were sensitized with PBS/alum and then were challenged with PBS.

Experiment [2] has as its system bronchial rings from control and house dust mite (HDM)-sensitized mice. The experiment in a line: Contractile responses ex vivo of bronchial rings from control and house dust mite-sensitized mice. The following applies: bronchial rings from control and HDM-sensitized mice pre-treated with inhibitor; FIG. 7. Here is the method:
(§1) Analysis of airways reactivity ex vivo: Primary bronchi were cut in 2 mm-long rings and mounted on a multichannel isometric myograph (Danish Myo Technology) containing a Krebs-Henseleit solution (118.4 mM NaCl, 4.7 mM KCl, 2 mM CaCl2, 1.2 mM MgSO4, 1.2 mM KH2PO4, 25 mM NaHCO3 and 11 mM glucose). A pre-trension of 0.5 mN was applied and maintained all along the protocol. We constructed cumulative concentration-response curves in response to KCl and methacholine (Sigma). When indicated, we pretreated rings with EHT1864 (Sigma) or NSC23766 (Calbiochem) Rac1 inhibitors at 10 μM, 1 h before contraction. Chambers wire myograph were connected to a digital data recorder (MacLab/4e, AD Instruments) and recordings were analyzed using LabChart v7 software (AD Instruments).
Allergic asthma induction: House dust mite model (HDM) of chronic asthma was used. In this case, mice were sensitized on days D0, D7, D14 and D21 by skin application of 500 μg of total extract of HDM Der f (Stallergenes) in 20 μL of dimethylsulfoxyde (DMSO, Sigma-Aldrich) on the ears. DMSO was used as an irritant able to facilitate the allergen penetration. Intranasal challenges were performed with Der f (250 μg in phosphate-buffered saline 250) on D27 and D34. Mice were sacrificed on D35 for ex vivo analysis.

The subject of a further experiment is bronchial rings. The experiment in a line: Analysis of airways reactivity ex vivo: bronchial rings on isometric myograph. The settings on record: bronchial rings from SM-Rac1-KO mice; FIG. 2, A and B. On the procedure:
as §1

Experiment [3] relates to methacholine-dependent bronchoconstriction. The experiment can be described thus: Airways responsiveness in vivo to inhaled methacholine, whole-body plethysmography, control (naive) mice. The settings on record: nebulized 10 min before methacholine challenge, FIG. 3, B and FIG. 6, E (ap/ap).

For `O=c1cc(CN2CCOCC2)occ1OCCCCCSc1ccnc2cc(C(F)(F)F)ccc12` [EHT1864], the metacholine-induced airway response result in experiment [1] is given as “Same results have been obtained”. In addition, the “methacholine and KCl contractions (bronchial reactivity)” value in experiment [2] is “methacholine and KCl contractions are inhibited in both group of bronchial rings; also recorded: bronchial reactivities of control and HDM sensitized-mice are similar”.

For `CCN(CC)CCCC(C)Nc1nc(C)cc(Nc2ccc3nc(C)cc(N)c3c2)n1` (centres unmarked) [NSC23766], in experiment [1], the AHR to methacholine entry is “almost completely prevented the AHR to methacholine; also recorded: comparable to that of salbutamol treatment” and the metacholine-induced airway response entry is given as “Same results have been obtained”. Further, in the experiment on bronchial rings, the “KCl- and methacholine-induced contraction” value is listed as “absence of any effect”. The “methacholine-dependent bronchoconstriction (airway reactivity, Penh)” value in experiment [3] is “prevented methacholine-dependent bronchoconstriction (FIG. 3, B) in a dose-dependent manner; also recorded: comparable to that of salbutamol treatment”.

Turning to `CC(C)(C)NCC(O)c1ccc(O)c(CO)c1` (centres unmarked) [salbutamol], in experiment [1], the AHR to methacholine entry was “effect of NSC23766 aerosol inhalation was comparable to that of salbutamol treatment”. The “methacholine-dependent bronchoconstriction (airway reactivity, Penh)” value in experiment [3] was “efficiency of NSC23766 aerosol inhalation is similar to that of salbutamol; also recorded: effect of NSC23766 aerosol inhalation was comparable to that of salbutamol treatment”.
